Assay results taken from PMC4344907 (International journal of pharmaceutics, 2014).
“And” between values parts separate entries of the source, which are not always exact repeats. Equal entries are not always repeated. Values belong to the molecule of their own block, whether it stands above or below them. Where a SMILES comes first, the peptide text is derived from it. [ ]: non-standard residue; d: D form. Sar = CNCC(=O)O

What was measured:
peptide transporters [1] = assay: [3H]-GlySar uptake in MDCK-MRP2 cells; type: cell-based; conditions: cold GlySar 10 mM, DPBS pH 7.4, 37 °C
peptide transporters [2] = assay: [3H]-GlySar uptake in MDCK-MDR1 cells; type: cell-based; conditions: cold GlySar 10 mM, DPBS pH 7.4, 37 °C
metabolizing enzymes [3] = assay: Time dependent degradation in rat liver microsomes; type: in vitro ADME; conditions: rat liver microsomes 0.3 mg/mL, 25 μM, 37 °C, 2 h
MDCK-WT cells = assay: Cytotoxicity, MTS based assay, 4 h incubation; type: cell-based
[4] = A-B transepithelial transport across MDCK-MRP2 cells; type: in vitro ADME; conditions: dog, pH 7.4
metabolizing enzymes [5] = assay: Concentration dependent degradation in rat liver microsomes; type: in vitro ADME; conditions: rat liver microsomes 0.3 mg/mL, 5 min, Michaelis-Menten fit
[6] = A-B transepithelial transport across MDCK-MDR1 cells; type: in vitro ADME; conditions: dog, MDCK-MDR1, pH 7.4
MRP2 [7] = target: T1, MRP2 (Homo sapiens, UniProt Q92887); assay: [3H]-LPV cellular uptake in MDCK-MRP2 cells; type: cell-based; conditions: compound 50 μM, DPBS pH 7.4, 37 °C, 30 min
P-gp = P-gp (Homo sapiens, UniProt P08183); assay: [3H]-LPV cellular uptake in MDCK-MDR1 cells; type: cell-based; conditions: compound 50 μM, DPBS pH 7.4, 37 °C, 30 min
[8] = A-B transepithelial transport across Caco2 cells; type: in vitro ADME; conditions: human, Caco-2, pH 5
MDCK-MRP2 cells = conditions: ref Patel et al., 2014b; cited from earlier work
MDCK-MDR1 cells = conditions: ref Patel et al., 2014b; cited from earlier work
MRP2 [9] = target: T1, MRP2; assay: Non-radiolabelled uptake of Val-Ile-LPV in MDCK-MRP2 cells with MRP2 inhibitor; type: cell-based; conditions: DPBS pH 7.4, 37 °C
metabolizing enzymes [10] = conditions: liver microsomes; ref Agarwal et al., 2008; cited from earlier work

T1 sequence (Q92887 whole entry): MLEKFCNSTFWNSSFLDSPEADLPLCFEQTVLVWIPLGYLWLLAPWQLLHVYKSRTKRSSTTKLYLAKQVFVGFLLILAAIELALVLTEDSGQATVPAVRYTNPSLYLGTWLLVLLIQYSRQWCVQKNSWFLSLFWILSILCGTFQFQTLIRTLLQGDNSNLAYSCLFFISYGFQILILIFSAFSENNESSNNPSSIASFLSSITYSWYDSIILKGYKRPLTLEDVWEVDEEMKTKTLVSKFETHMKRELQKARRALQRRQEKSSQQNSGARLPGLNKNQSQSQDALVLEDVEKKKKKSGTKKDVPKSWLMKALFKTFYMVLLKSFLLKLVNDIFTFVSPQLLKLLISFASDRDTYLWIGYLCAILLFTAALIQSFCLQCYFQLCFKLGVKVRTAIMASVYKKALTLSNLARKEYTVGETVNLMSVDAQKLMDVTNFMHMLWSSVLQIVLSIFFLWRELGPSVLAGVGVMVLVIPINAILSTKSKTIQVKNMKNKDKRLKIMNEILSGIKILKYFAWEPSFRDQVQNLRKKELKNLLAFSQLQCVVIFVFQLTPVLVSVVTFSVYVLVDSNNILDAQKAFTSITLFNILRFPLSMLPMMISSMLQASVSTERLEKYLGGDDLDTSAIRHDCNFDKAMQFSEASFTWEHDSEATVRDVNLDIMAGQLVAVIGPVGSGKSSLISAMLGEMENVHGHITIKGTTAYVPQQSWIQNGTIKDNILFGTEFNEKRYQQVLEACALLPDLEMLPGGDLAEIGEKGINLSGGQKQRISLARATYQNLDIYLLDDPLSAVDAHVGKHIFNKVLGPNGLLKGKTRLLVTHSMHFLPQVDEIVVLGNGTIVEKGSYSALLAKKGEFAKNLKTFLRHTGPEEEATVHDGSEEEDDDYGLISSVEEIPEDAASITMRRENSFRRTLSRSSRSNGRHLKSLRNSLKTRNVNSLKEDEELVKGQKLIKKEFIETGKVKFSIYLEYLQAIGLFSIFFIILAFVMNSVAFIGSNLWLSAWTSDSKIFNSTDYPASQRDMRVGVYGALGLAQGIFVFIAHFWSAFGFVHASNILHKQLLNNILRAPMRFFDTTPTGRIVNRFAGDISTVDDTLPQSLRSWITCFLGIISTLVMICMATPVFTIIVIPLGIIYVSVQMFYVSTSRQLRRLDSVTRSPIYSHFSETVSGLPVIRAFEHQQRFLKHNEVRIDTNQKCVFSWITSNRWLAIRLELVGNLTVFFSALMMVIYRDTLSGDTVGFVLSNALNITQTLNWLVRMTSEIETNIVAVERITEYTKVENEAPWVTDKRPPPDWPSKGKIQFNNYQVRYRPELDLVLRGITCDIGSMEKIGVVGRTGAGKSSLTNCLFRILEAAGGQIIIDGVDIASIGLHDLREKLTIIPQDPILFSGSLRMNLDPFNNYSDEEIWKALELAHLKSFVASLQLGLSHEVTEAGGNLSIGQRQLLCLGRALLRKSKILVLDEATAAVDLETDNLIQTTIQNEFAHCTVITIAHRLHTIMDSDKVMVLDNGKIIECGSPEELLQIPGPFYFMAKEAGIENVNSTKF
P-gp, sequence (P08183 whole entry): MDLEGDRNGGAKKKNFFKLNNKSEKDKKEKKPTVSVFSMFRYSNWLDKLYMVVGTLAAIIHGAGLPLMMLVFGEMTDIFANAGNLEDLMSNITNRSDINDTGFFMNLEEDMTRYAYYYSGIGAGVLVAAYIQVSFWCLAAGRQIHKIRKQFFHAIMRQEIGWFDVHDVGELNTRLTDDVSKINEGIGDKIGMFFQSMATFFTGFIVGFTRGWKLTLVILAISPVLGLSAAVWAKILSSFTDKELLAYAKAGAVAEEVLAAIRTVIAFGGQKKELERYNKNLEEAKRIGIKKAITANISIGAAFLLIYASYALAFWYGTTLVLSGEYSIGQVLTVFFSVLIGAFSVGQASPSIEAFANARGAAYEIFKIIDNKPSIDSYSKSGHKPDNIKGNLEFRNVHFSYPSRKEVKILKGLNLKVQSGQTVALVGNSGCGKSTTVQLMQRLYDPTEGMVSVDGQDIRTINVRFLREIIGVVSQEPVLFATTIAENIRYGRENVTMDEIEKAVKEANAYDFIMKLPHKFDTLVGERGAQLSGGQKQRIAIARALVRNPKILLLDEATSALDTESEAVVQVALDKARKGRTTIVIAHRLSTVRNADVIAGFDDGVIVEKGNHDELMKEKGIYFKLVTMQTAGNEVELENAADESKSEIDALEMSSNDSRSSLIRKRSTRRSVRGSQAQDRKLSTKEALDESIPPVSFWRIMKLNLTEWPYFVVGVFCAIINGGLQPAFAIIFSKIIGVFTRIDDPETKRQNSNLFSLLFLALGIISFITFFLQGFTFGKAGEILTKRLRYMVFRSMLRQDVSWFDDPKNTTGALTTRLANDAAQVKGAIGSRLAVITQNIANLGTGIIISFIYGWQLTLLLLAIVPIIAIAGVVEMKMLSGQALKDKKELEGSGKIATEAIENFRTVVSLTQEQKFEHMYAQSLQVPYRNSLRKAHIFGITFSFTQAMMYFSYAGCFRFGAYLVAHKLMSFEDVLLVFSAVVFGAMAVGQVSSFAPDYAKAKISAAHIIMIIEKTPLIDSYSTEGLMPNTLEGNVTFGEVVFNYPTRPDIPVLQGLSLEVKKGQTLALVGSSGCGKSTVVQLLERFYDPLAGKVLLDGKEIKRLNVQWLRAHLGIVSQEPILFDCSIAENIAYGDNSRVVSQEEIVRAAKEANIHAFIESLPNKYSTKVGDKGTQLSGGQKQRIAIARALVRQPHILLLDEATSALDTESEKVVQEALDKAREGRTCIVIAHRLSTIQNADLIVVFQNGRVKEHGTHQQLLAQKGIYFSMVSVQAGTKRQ

Molecule: CN(CC(=O)O)C(=O)CN [GlySar] (H-Gly-[Sar]-OH)
Reduction in [3H]-GlySar uptake (peptide transporters [1]): ~80% | Reduction in [3H]-GlySar uptake (peptide transporters [2]): ~80%

Papp A→B at 3 h, 25 μM [4]: […] | Vmax (metabolizing enzymes [5]): 8.1 ± 0.4 nmoles/min/mg protein | Papp A→B at 3 h, 25 μM [6]: […] | Enhancement of [3H]-LPV uptake in the presence of unlabelled compound (MRP2 [7]): […] | Enhancement of [3H]-LPV uptake in the presence of unlabelled compound (P-gp): 3.2 fold | Papp A→B at 3 h, 25 μM [8]: […]
Molecule: Cc1cccc(C)c1OCC(=O)N[C@@H](Cc1ccccc1)[C@@H](O)C[C@H](Cc1ccccc1)NC(=O)[C@H](C(C)C)N1CCCNC1=O [LPV, lopinavir]

Uptake as % control (Val-Ile-LPV) (MRP2 [9]; uptake of Val-Ile-LPV 50 μM in the presence of MK 571 25 μM): 104 ± 4 % control | Uptake as % control (Val-Ile-LPV) (MRP2 [9]; uptake of Val-Ile-LPV 50 μM in the presence of MK 571 75 μM): 102 ± 2 % control
Molecule: CN(C)C(=O)CCSC(SCCC(=O)O)c1cccc(/C=C/c2ccc3ccc(Cl)cc3n2)c1 (centres unmarked) [MK 571]

Molecule: Cc1cccc(C)c1OCC(=O)NC(Cc1ccccc1)C(CC(Cc1ccccc1)NC(=O)C(C(C)C)N1CCCNC1=O)OC(=O)C(NC(=O)CN)C(C)C (centres unmarked) [glycine-valine-LPV]
Metabolic stability, fold increase relative to LPV (metabolizing enzymes [10]): 2.44 fold

Molecule: Cc1cccc(C)c1OCC(=O)NC(Cc1ccccc1)C(CC(Cc1ccccc1)NC(=O)C(C(C)C)N1CCCNC1=O)OC(=O)C(NC(=O)C(N)C(C)C)C(C)C (centres unmarked) [valine-valine-LPV]
Metabolic stability, fold increase relative to LPV (metabolizing enzymes [10]): 1.48 fold

Molecule: Triton-X
Reduction in absorbance relative to control (MDCK-WT cells; 0.1%, positive control): 90%
